Test results from patent US7704995B2 (Exelixis, Inc., priority 2003, dated 2010).
Like-named read-outs stand apart in the source and are kept apart here. One block for each compound: values may come before it.

Target: T1, Chk1 (Homo sapiens, UniProt O14757)
T1 construct: purchased Upstate Biotechnology
T1 sequence (O14757 1-476): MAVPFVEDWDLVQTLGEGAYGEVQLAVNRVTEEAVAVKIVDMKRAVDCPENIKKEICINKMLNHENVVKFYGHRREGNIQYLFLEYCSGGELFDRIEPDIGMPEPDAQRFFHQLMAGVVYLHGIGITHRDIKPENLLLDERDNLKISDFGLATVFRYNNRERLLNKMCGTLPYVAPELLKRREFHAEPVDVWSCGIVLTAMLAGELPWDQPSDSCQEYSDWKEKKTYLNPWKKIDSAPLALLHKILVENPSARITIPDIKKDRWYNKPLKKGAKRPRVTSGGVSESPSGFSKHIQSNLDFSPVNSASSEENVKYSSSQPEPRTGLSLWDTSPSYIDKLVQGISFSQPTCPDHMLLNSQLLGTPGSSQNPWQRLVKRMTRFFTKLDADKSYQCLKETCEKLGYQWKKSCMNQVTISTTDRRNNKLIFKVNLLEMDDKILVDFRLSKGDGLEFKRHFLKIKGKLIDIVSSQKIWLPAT
Assay: Chk1 kinase assay: incorporation of γ-33P ATP into immobilized myelin basic protein
Assay type: biochemical
Conditions: read-out: Chk1 IC50
Procedure, shortened: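 Immobilized-MBP radiometric kinase assay, room temperature for 1 h; ATP 10 μM (Chk1, 10 nM enzyme) or 30 μM (Chk2, 20 nM enzyme) with 33P tracer. Values are IC50s, with Ki derived from them.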

[1] = Table 11, Chk1 only, class symbols A-D

IC50 [1]: < 0.05 µM
SMILES: CSc1ccc(CNC(=O)c2cccc(-c3cnc(N)c(C(=O)N[C@H]4CCCNC4)n3)c2)cc1 [Example 864, 3-amino-6-{3-[({[4-(methylthio)phenyl]methyl}amino)carbonyl]phenyl}-N-[(3S)-piperidin-3-yl]pyrazine-2-carboxamide]

IC50 [1]: < 0.05 µM
SMILES: Nc1ncc(-c2cccc(C(=O)NCc3ccc(Cl)c(Cl)c3)c2)nc1C(=O)N[C@H]1CCNC1 [Example 826, 3-amino-6-[3-({[(3,4-dichlorophenyl)methyl]amino}carbonyl)phenyl]-N-[(3S)-pyrrolidin-3-yl]pyrazine-2-carboxamide]

IC50 (Table 11, Chk1 only): ≥ 10 µM
SMILES: CC(C)(C)OC(=O)NC1CCN(C(=O)c2nc(-c3cccc(C(=O)NCc4ccccc4)c3)cnc2N)CC1 [Example 617, 1,1-dimethylethyl (1-{[3-amino-6-(3-{[(phenylmethyl)amino]carbonyl}phenyl)pyrazin-2-yl]carbonyl}piperidin-4-yl)carbamate]

IC50 [1]: < 0.05 µM
SMILES: Nc1ncc(-c2cccc(NC(=O)c3cnc4ccccc4c3)c2)nc1C(=O)N[C@H]1CCCNC1 [Example 910, N-[3-(5-amino-6-{[(3S)-piperidin-3-ylamino]carbonyl}pyrazin-2-yl)phenyl]quinoline-3-carboxamide]

IC50 (Table 11, Chk1 only): 0.05 to 1 µM
SMILES: CNC(=O)c1nc(-c2cccc(CNC3CCc4c(Cl)cc(Cl)cc43)c2)cnc1N (stereo not drawn) [Example 486, 3-amino-6-(3-{[(4,6-dichloro-2,3-dihydro-1H-inden-1-yl)amino]methyl}phenyl)-N-methylpyrazine-2-carboxamide]

IC50 (Table 11, Chk1 only): < 0.05 µM
SMILES: CNC(=O)c1nc(-c2cccc(CNC3CCc4cc(CCCO)ccc43)c2)cnc1N (stereo not drawn) [Example 527]

IC50 (Table 11, Chk1 only): 1 to 10 µM
SMILES: CC(C)(C)OC(=O)N1CC[C@H](NC(=O)c2nc(-c3cccc(C(=O)NCc4c(F)cccc4Cl)c3)cnc2N)C1 [Example 740, 1,1-dimethylethyl (3S)-3-[({3-amino-6-[3-({[(2-chloro-6-fluorophenyl)methyl]amino}carbonyl)phenyl]pyrazin-2-yl}carbonyl)amino]pyrrolidine-1-carboxylate]

IC50 (Table 11, Chk1 only): < 0.05 µM
SMILES: Nc1ncc(-c2cccc(C(=O)N[C@H]3CCc4ccccc43)c2)nc1C(=O)N[C@H]1CCNC1 [Example 644, 3-amino-6-(3-{[(1S)-2,3-dihydro-1H-inden-1-ylamino]carbonyl}phenyl)-N-[(3S)-pyrrolidin-3-yl]pyrazine-2-carboxamide]

IC50 [1]: < 0.05 µM
SMILES: Nc1ncc(-c2cccc(C(=O)NCc3ccc4c(c3)OCO4)c2)nc1C(=O)N[C@H]1CCCNC1 [Example 853, 3-amino-6-(3-{[(1,3-benzodioxol-5-ylmethyl)amino]carbonyl}phenyl)-N-[(3S)-piperidin-3-yl]pyrazine-2-carboxamide]

IC50 [1]: < 0.05 µM
SMILES: Nc1ncc(-c2cccc(CNC(=O)Nc3ccc(F)cc3)c2)nc1C(=O)N[C@H]1CCCNC1 [Example 958, 3-amino-6-{3-[({[(4-fluorophenyl)amino]carbonyl}amino)methyl]phenyl}-N-[(3S)-piperidin-3-yl]pyrazine-2-carboxamide]

IC50 [1]: < 0.05 µM
SMILES: COc1ccc(C(=O)NCc2cccc(-c3cnc(N)c(C(=O)N[C@H]4CCCNC4)n3)c2)cc1 [Example 932, 3-amino-6-{3-[({[4-(methyloxy)phenyl]carbonyl}amino)methyl]phenyl}-N-[(3S)-piperidin-3-yl]pyrazine-2-carboxamide]

IC50 (Table 11, Chk1 only): 0.05 to 1 µM
SMILES: Nc1ncc(-c2cccc(C(=O)N[C@H]3CCc4ccccc43)c2)nc1-c1nc(C2CCCNC2)n(-c2ccccc2)n1 (stereo partly drawn) [Example 773, 3-[5-amino-6-(1-phenyl-5-piperidin-3-yl-1H-1,2,4-triazol-3-yl)pyrazin-2-yl]-N-[(1S)-2,3-dihydro-1H-inden-1-yl]benzamide]

IC50 (Table 11, Chk1 only): 0.05 to 1 µM
SMILES: CNC(=O)c1nc(-c2cc(F)cc(C(=O)N[C@H]3CCc4ccccc43)c2)cnc1N [Example 788, 3-amino-6-(3-{[(1S)-2,3-dihydro-1H-inden-1-ylamino]carbonyl}-5-fluorophenyl)-N-methylpyrazine-2-carboxamide]

IC50 (Table 11, Chk1 only): 0.05 to 1 µM
SMILES: Nc1ncc(-c2cccc(C(=O)N[C@H]3CCc4ccccc43)c2)nc1C(=O)NCCc1c[nH]cn1 [Example 767, 3-amino-6-(3-{[(1S)-2,3-dihydro-1H-inden-1-ylamino]carbonyl}phenyl)-N-[2-(1H-imidazol-4-yl)ethyl]pyrazine-2-carboxamide]

IC50 [1]: < 0.05 µM
SMILES: Nc1ncc(-c2cccc(CN[C@@H]3c4ccccc4C[C@@H]3O)c2)nc1C(=O)N[C@H]1CCNC1 [Example 806, 3-amino-6-[3-({[(1R,2S)-2-hydroxy-2,3-dihydro-1H-inden-1-yl]amino}methyl)phenyl]-N-[(3S)-pyrrolidin-3-yl]pyrazine-2-carboxamide]

IC50: 0.05 to 1 µM
SMILES: CNC(=O)c1nc(-c2cccc(CN[C@H](C)c3ccccc3)c2)cnc1N [Example 420, 3-amino-N-methyl-6-[3-({[(1R)-1-phenylethyl]amino}methyl)phenyl]pyrazine-2-carboxamide]

IC50 [1]: < 0.05 µM
SMILES: Nc1ncc(-c2cccc(CNC(=O)c3ccno3)c2)nc1C(=O)N[C@H]1CCCNC1 [Example 990, 3-amino-6-(3-{[(isoxazol-5-ylcarbonyl)amino]methyl}phenyl)-N-[(3S)-piperidin-3-yl]pyrazine-2-carboxamide]

Second part, the compound before the results:

SMILES: CNC(=O)c1nc(-c2cccc(CNC(=O)c3ccc4c(c3)OCO4)c2)cnc1N [Example 352, 3-amino-6-(3-{[(1,3-benzodioxol-5-ylcarbonyl)amino]methyl}phenyl)-N-methylpyrazine-2-carboxamide]
IC50: 0.05 to 1 µM

SMILES: CNC(=O)c1nc(-c2cccc(C(=O)NCc3cccc(OC)c3)c2)cnc1N [Example 107, 3-amino-N-methyl-6-{3-[({[3-(methyloxy)phenyl]methyl}amino)carbonyl]phenyl}pyrazine-2-carboxamide]
IC50: 0.05 to 1 µM

SMILES: CNC(=O)c1nc(-c2cccc(C(=O)N(C)C)c2)cnc1N [Example 86, 3-amino-6-{3-[(dimethylamino)carbonyl]phenyl}-N-methylpyrazine-2-carboxamide]
IC50: 1 to 10 µM

SMILES: CNC(=O)c1nc(-c2cccc(C(=O)NCc3ccc(N4CCN(C)CC4)cc3)c2)cnc1N [Example 290, 3-amino-N-methyl-6-{3-[({[4-(4-methylpiperazin-1-yl)phenyl]methyl}amino)carbonyl]phenyl}pyrazine-2-carboxamide]
IC50: 1 to 10 µM

SMILES: CNC(=O)c1nc(-c2cccc(CNCc3ccc4c(c3)OCCO4)c2)cnc1N [Example 403, 3-amino-6-(3-{[(2,3-dihydro-1,4-benzodioxin-6-ylmethyl)amino]methyl}phenyl)-N-methylpyrazine-2-carboxamide]
IC50: 0.05 to 1 µM

SMILES: CNC(=O)c1nc(-c2cccc(C(=O)NCC(c3ccccc3)c3ccccc3)c2)cnc1N [Example 263, 3-amino-6-(3-{[(2,2-diphenylethyl)amino]carbonyl}phenyl)-N-methylpyrazine-2-carboxamide]
IC50: 0.05 to 1 µM

SMILES: CNC(=O)c1nc(-c2ccc(N(C)C)cc2)cnc1N [Example 76, 3-amino-6-[4-(dimethylamino)phenyl]-N-methylpyrazine-2-carboxamide]
IC50: 1 to 10 µM

SMILES: CNC(=O)c1nc(-c2cccc(NC(=O)OCC3c4ccccc4-c4ccccc43)c2)cnc1N [Example 317, 9H-fluoren-9-ylmethyl (3-{5-amino-6-[(methylamino)carbonyl]pyrazin-2-yl}phenyl)carbamate]
IC50: 1 to 10 µM

SMILES: CNC(=O)c1nc(-c2cccc(C(=O)NCc3ccc(Cl)c(C(F)(F)F)c3)c2)cnc1N [Example 229, 3-amino-6-{3-[({[4-chloro-3-(trifluoromethyl)phenyl]methyl}amino)carbonyl]phenyl}-N-methylpyrazine-2-carboxamide]
IC50: 0.05 to 1 µM

SMILES: CNC(=O)c1nc(-c2cccs2)cnc1N [Example 268, 3-amino-N-methyl-6-(2-thienyl)pyrazine-2-carboxamide]
IC50: 0.05 to 1 µM

SMILES: CCN(CC)CCOc1cccc(-c2cnc(N)c(C(=O)NC)n2)c1 [Example 179, 3-amino-6-(3-{[2-(diethylamino)ethyl]oxy}phenyl)-N-methylpyrazine-2-carboxamide]
IC50: 0.05 to 1 µM

SMILES: CNC(=O)c1nc(-c2cccc(C(=O)NCc3cccc(Br)c3)c2)cnc1N [Example 239, 3-amino-6-[3-({[(3-bromophenyl)methyl]amino}carbonyl)phenyl]-N-methylpyrazine-2-carboxamide]
IC50: 0.05 to 1 µM

SMILES: CNC(=O)c1nc(-c2cccc(NC(=O)Cc3ccc(C(F)(F)F)cc3)c2)cnc1N [Example 211, 3-amino-N-methyl-6-[3-({[4-(trifluoromethyl)phenyl]acetyl}amino)phenyl]pyrazine-2-carboxamide]
IC50: 0.05 to 1 µM

SMILES: Nc1ncc(-c2cccc(CN[C@H]3CCc4ccccc43)c2)nc1C(=O)N[C@H]1CN2CCC1CC2 [Example 863, 3-amino-N-[(3R)-1-azabicyclo[2.2.2]oct-3-yl]-6(3-{[(1S)-2,3-dihydro-1H-inden-1-ylamino]methyl}phenyl)pyrazine-2-carboxamide]
IC50 [1]: 0.05 to 1 µM

SMILES: CNC(=O)c1nc(-c2cccc(C#N)c2)cnc1N [Example 165, 3-amino-6-(3-cyanophenyl)-N-methylpyrazine-2-carboxamide]
IC50: 1 to 10 µM

SMILES: CNC(=O)c1nc(-c2cccc(NC(=O)C(c3ccccc3)c3ccccc3)c2)cnc1N [Example 157, 3-amino-6-{3-[(diphenylacetyl)amino]phenyl}-N-methylpyrazine-2-carboxamide]
IC50: 0.05 to 1 µM
